The record followed here is patent publication US10376487B2, “Method of treatment” (Vanda Pharmaceuticals, Inc., priority 2013, dated 2019).

This series is described as follows: Clinical food-effect study: pharmacokinetics of a 100 mg tasimelteon capsule with or without a high-fat/high-calorie meal. Conditions: for Cmax / Tmax: human, in vivo, po. The format is in vivo, human. The protocol: A clinical study was undertaken to investigate the effects of food on administration of tasimelteon. Specifically, the primary objective of the study was to investigate the influence of food (high-calorie/high-fat) on the pharmacokinetics of 100 mg of tasimelteon in healthy subjects. This was a single-center, open-label, crossover design which lasted up to 5 weeks. 26 Healthy male and female subjects (18-50 years old) were enrolled in the study. There was a 2-period, randomized, 2-sequence crossover design where each subject received 100 mg tasimelteon either with or without food. Subjects were randomly assigned to receive a 100 mg tasimelteon capsule under fasted conditions or a 100 mg tasimelteon capsule under fed conditions (i.e., 30 minutes after beginning to ingest a high-fat meal). There was a 7-day washout between treatment groups. FIG. 1 depicts an example of the overall study design. In FIG. 1, tasimelteon is referred to as VEC-162.
For purposes of the study depicted in FIG. 1, administration under fasted conditions was administration with 240 mL of water at approximately 6:00 AM, after at least a 10-hour fast. Subjects were not allowed to eat any food for at least 4 hours postdose. Subjects were allowed to drink water as desired except 1 hour before and 2 hours after drug administration.
Administration under fed conditions was administration with 240 mL of water at approximately 6:00 AM, after a high-fat/high=calorie breakfast, which included one cup of milk. Subjects began the recommended meal 30 minutes prior to drug administration. Subjects finished eating the meal in 30 minutes or less and the drug was administered approximately 30 minutes after the start of the meal. Subjects were not allowed to eat any food for at least 4 hours postdose. Subjects were allowed to drink water as desired except 1 hour before and 2 hours after drug administration.
25 Subjects completed both periods of the study.

Setting [1] is: fed vs fasted, 100 mg oral, 90% CI within 80% to 125%.
Where [2] appears, read: with a high-fat/high calorie meal vs fasted.

Read-outs that look alike come from different tables or passages of the source.

As for `CCC(=O)NC[C@@H]1C[C@H]1c1cccc2c1CCO2` [tasimelteon], the “Cmax lower than when given in a fasted state” value (administered with a high-fat meal, illustrative prescribing information language) was determined as 44%. Also, the Cmax (both sexes, 100 mg, healthy subjects, 100 mg oral capsule, fasted conditions) worked out at 786 ng/mL. The molecule further yielded a Cmax (both sexes, 100 mg, healthy subjects, 100 mg oral capsule, fed conditions (high-fat/high-calorie meal)) of 445 ng/mL. In addition, the Tmax (both sexes, 100 mg, healthy subjects, 100 mg oral capsule, fed conditions (high-fat/high-calorie meal), read-out: median Tmax) was 2.5 h. Under setting [1], the “AUC(0-t) geometric mean ratio” value came to 108.57% and the “AUC(Inf) geometric mean ratio” value was 106.54%. The “Cmax geometric mean ratio” value (fed vs fasted, 100 mg oral, 90% confidence interval 49.72% to 62.67%) was 55.82%. The Tmax (after fasted oral administration, illustrative prescribing information language, read-out: peak concentration (Tmax)) is 0.5 to 3 h. Under setting [2], the extent of absorption entry is recorded as “no significant change” and the rate of absorption result is recorded as “significant decrease”.
